Where a SMILES comes first, the peptide text is derived from it. [ ]: non-standard residue; d: D form. The star is where a group is joined. 2Nal = N[C@@H](Cc1ccc2ccccc2c1)C(=O)O; Octanoyl = CCCCCCCC(=O)*; Dab = NCC[C@H](N)C(=O)O; AEEA = NCCOCCOCC(=O)O
How the values were obtained:
[1] = Hydrophobicity by analytical RP-HPLC (%B at peak elution); format: physicochemical; details: chromatographic, percentage of mobile phase B at the peak elution time
Description: To investigate the effect of attaching fatty acids to a macrocycle, fatty acid tails of different lengths were used. When the carbon chain was elongated, the hydrophobicity of the peptide was increased gradually. Herein, the hydrophobicity is expressed as the percentage of mobile phase B at the peak elution time on an RP-HPLC system.

[2] = tested on: P. aeruginosa ATCC 27853
Procedure: The MIC constitutes a limited measure for antimicrobial activity. It indicates whether or not AMPs in different concentrations are able to prevent visible growth of bacteria.
Time-kill experiments were performed on balanced exponentially growing cultures of P. aeruginosa ATCC 27853. We used balanced cultures as described in Oddo et al.. Briefly, overnight cultures were prepared in MHB-II broth at 37 °C with shaking. Overnight cultures were back-diluted and grown exponentially for no less than 8–10 generations before experimentation. When experiments were done, exponentially growing cultures were back-diluted to an OD600 = 0.0005 approximately 5 × 10^5 CFU, into fresh MHB-II heated to 37 °C. Samples (250 μL) were taken at time points 0, 1, 3, 5, and 24 h. Samples were spun down at 8000× g for 5 min and washed in 1 mL of NaCl 0.9% before being spun down again and re-suspended in 250 μL NaCl 0.9%. From this, 10-fold dilution series were prepared and 10 μL samples were spot-plated in triplicate onto LB-agar. From the undiluted sample, 100 μL samples were also plated, i.e., giving a detection limit of 10 CFU/mL.

CCCCCCCC(=O)NCC[C@@H]1NC(=O)[C@H](CCN)NC(=O)[C@H](CCCNC(=N)N)NC(=O)[C@H](Cc2ccc3ccccc3c2)NC(=O)[C@H](CCN)NC(=O)[C@H](CC(N)=O)NC(=O)[C@H](CCN)NC(=O)[C@H](Cc2ccc3ccccc3c2)NC(=O)COCCOCCNC1=O [(C8)^5] (cyclo([Dab][2Nal]R[Dab][Dab](Octanoyl)[AEEA][2Nal][Dab]N))
%B at peak of elution in analytical HPLC (hydrophobicity) [1]: 69%
%B at peak of elution in analytical HPLC (hydrophobicity) ([1]; listed as (C8)^7): 71%
bacterial cell count over the first 5 h ([2]; 1 × MIC (8 μg/mL), 0–5 h, MHB-II, 37 °C): did not change
log reduction of cell count within first hour of treatment ([2]; 5 × MIC ((C8)^5 40 μg/mL; colistin 2.5 μg/mL), 1 h, MHB-II, 37 °C, shaking, n = 3): 4.5 log
cell count / growth after 24 h ([2]; 5 × MIC ((C8)^5 40 μg/mL; colistin 2.5 μg/mL), 24 h, detection limit 10 CFU/mL): 10^4 CFU/mL
killing of the bacteria in the original inoculum ([2]; ATCC 27853, 1 h, 40 μg/mL): > 99.9%
